Test results from ChEMBL document CHEMBL4308841, “Synthesis, in vitro antiproliferative activity, and kinase inhibitory effects of pyrazole-containing diarylureas and diarylamides” (Eur J Med Chem, 2018).

What was measured:
SNB-75 = assay: Growth inhibition of human SNB75 cells incubated for 48 hrs by sulforhodamine B assay; assay type: functional, cell-based; settings: SNB-75, 48 h
A498 = assay: Growth inhibition of human A498 cells assessed as cell growth at 0.01 uM incubated for 48 hrs by sulforhodamine B assay relative to control; assay type: functional; settings: A498, 48 h, read-out: Activity
SF-295 [1] = assay: Growth inhibition of human SF295 cells assessed as cell growth at 100 uM incubated for 48 hrs by sulforhodamine B assay relative to control; assay type: functional; settings: SF-295, 48 h, read-out: Activity
OVCAR-8 = assay: Growth inhibition of human OVCAR8 cells assessed as cell growth at 100 uM incubated for 48 hrs by sulforhodamine B assay relative to control; assay type: functional; settings: OVCAR-8, 48 h, read-out: Activity
COLO 205 [2] = assay: Growth inhibition of human COLO205 cells assessed as cell growth at 100 uM incubated for 48 hrs by sulforhodamine B assay relative to control; assay type: functional; settings: COLO 205, 48 h, read-out: Activity
Malme-3M [3] = assay: Growth inhibition of human MALME-3M cells assessed as cell growth at 0.01 uM incubated for 48 hrs by sulforhodamine B assay relative to control; assay type: functional; settings: read-out: Activity
OVCAR-5 [4] = assay: Growth inhibition of human OVCAR5 cells assessed as cell growth at 100 uM incubated for 48 hrs by sulforhodamine B assay relative to control; assay type: functional; settings: OVCAR-5, 48 h, read-out: Activity
Malme-3M [5] = assay: Growth inhibition of human MALME-3M cells assessed as cell growth at 0.1 uM incubated for 48 hrs by sulforhodamine B assay relative to control; assay type: functional; settings: read-out: Activity
MDA-MB-231 [6] = assay: Growth inhibition of human MDA-MB-231 cells assessed as cell growth at 0.01 uM incubated for 48 hrs by sulforhodamine B assay relative to control; assay type: functional; settings: MDA-MB-231, 48 h, read-out: Activity
MOLT-4 = assay: Growth inhibition of human MOLT4 cells assessed as cell growth at 1 uM incubated for 48 hrs by sulforhodamine B assay relative to control; assay type: functional; settings: MOLT-4, 48 h, read-out: Activity
OVCAR-5 [7] = assay: Growth inhibition of human OVCAR5 cells incubated for 48 hrs by sulforhodamine B assay; assay type: functional, cell-based; settings: OVCAR-5, 48 h
SN12C = assay: Growth inhibition of human SN12C cells incubated for 48 hrs by sulforhodamine B assay; assay type: functional, cell-based
CAKI-1 = assay: Growth inhibition of human Caki1 cells assessed as cell growth at 100 uM incubated for 48 hrs by sulforhodamine B assay relative to control; assay type: functional; settings: CAKI-1, 48 h, read-out: Activity
T47D = assay: Growth inhibition of human T47D cells assessed as cell growth at 0.1 uM incubated for 48 hrs by sulforhodamine B assay relative to control; assay type: functional; settings: read-out: Activity
MDA-MB-231 [8] = assay: Growth inhibition of human MDA-MB-231 cells assessed as cell growth at 0.1 uM incubated for 48 hrs by sulforhodamine B assay relative to control; assay type: functional; settings: MDA-MB-231, 48 h, read-out: Activity
HCT-15 = assay: Growth inhibition of human HCT15 cells assessed as cell growth at 100 uM incubated for 48 hrs by sulforhodamine B assay relative to control; assay type: functional; settings: HCT-15, 48 h, read-out: Activity
SK-MEL-2 = assay: Growth inhibition of human SK-MEL-2 cells assessed as cell growth at 0.1 uM incubated for 48 hrs by sulforhodamine B assay relative to control; assay type: functional; settings: SK-MEL-2, 48 h, read-out: Activity
OVCAR-3 = assay: Growth inhibition of human OVCAR3 cells assessed as cell growth at 1 uM incubated for 48 hrs by sulforhodamine B assay relative to control; assay type: functional; settings: OVCAR-3, 48 h, read-out: Activity
NCI-H522 = assay: Growth inhibition of human NCI-H522 cells assessed as cell growth at 1 uM incubated for 48 hrs by sulforhodamine B assay relative to control; assay type: functional; settings: NCI-H522, 48 h, read-out: Activity
SR = assay: Growth inhibition of human SR cells assessed as cell growth at 100 uM incubated for 48 hrs by sulforhodamine B assay relative to control; assay type: functional; settings: read-out: Activity
UACC-257 [9] = assay: Growth inhibition of human UACC257 cells assessed as cell growth at 0.01 uM incubated for 48 hrs by sulforhodamine B assay relative to control; assay type: functional; settings: UACC-257, 48 h, read-out: Activity
COLO 205 [10] = assay: Growth inhibition of human COLO205 cells incubated for 48 hrs by sulforhodamine B assay; assay type: functional, cell-based; settings: COLO 205, 48 h
RPMI-8226 = assay: Growth inhibition of human RPMI8226 cells assessed as cell growth at 100 uM incubated for 48 hrs by sulforhodamine B assay relative to control; assay type: functional; settings: RPMI-8226, 48 h, read-out: Activity
NCI-H460 = assay: Growth inhibition of human NCI-H460 cells assessed as cell growth at 1 uM incubated for 48 hrs by sulforhodamine B assay relative to control; assay type: functional; settings: NCI-H460, 48 h, read-out: Activity
SF-295 [11] = assay: Growth inhibition of human SF295 cells incubated for 48 hrs by sulforhodamine B assay; assay type: functional, cell-based; settings: SF-295, 48 h
NCI/ADR-RES = assay: Growth inhibition of human NCI/ADR-RES cells assessed as cell growth at 1 uM incubated for 48 hrs by sulforhodamine B assay relative to control; assay type: functional; settings: read-out: Activity
ACHN = assay: Growth inhibition of human ACHN cells assessed as cell growth at 1 uM incubated for 48 hrs by sulforhodamine B assay relative to control; assay type: functional; settings: read-out: Activity
UACC-257 [12] = assay: Growth inhibition of human UACC257 cells assessed as cell growth at 0.1 uM incubated for 48 hrs by sulforhodamine B assay relative to control; assay type: functional; settings: UACC-257, 48 h, read-out: Activity
IGROV-1 = assay: Growth inhibition of human IGROV1 cells incubated for 48 hrs by sulforhodamine B assay; assay type: functional, cell-based; settings: IGROV-1, 48 h
NCI-H226 = assay: Growth inhibition of human NCI-H226 cells assessed as cell growth at 1 uM incubated for 48 hrs by sulforhodamine B assay relative to control; assay type: functional; settings: NCI-H226, 48 h, read-out: Activity
[13] = read-out: LC50 (the source's name)
[14] = read-out: pLC50 (the source's name) (converted)

In the case of `O=C(Nc1cccc(-n2cc(-c3ccncc3)c(-c3cc(O)cc(Cl)c3)n2)c1)Nc1ccc(Cl)c(C(F)(F)F)c1`, the GI50 (SNB-75; read-out: GI50) is reported as 1.49 µM, the CC50 (SNB-75; [13]) is reported as over 100 µM and the TGI (SNB-75; read-out: TGI) is reported as 63.6 µM. It also gave a GI50 (SNB-75; read-out: pGI50 (converted)) of 1.48 µM, a CC50 (SNB-75; [14]) of over 100 µM and a TGI (SNB-75; read-out: pTGI (converted)) of 6.31 µM. The growth at 0.01 µM (A498) was 58%, the growth at 100 µM (SF-295 [1]) was -80% and the growth at 100 µM (OVCAR-8) was -52%. For the same compound, the growth at 100 µM (COLO 205 [2]) was -77%, the growth at 0.01 µM (Malme-3M [3]) was 93% and the growth at 100 µM (OVCAR-5 [4]) was -55%. The growth at 0.1 µM (Malme-3M [5]) was 81%, the growth at 0.01 µM (MDA-MB-231 [6]) was 105% and the growth at 1 µM (MOLT-4) was 52%. It also gave a GI50 (OVCAR-5 [7]; read-out: GI50) of 3.79 µM, a CC50 (OVCAR-5 [7]; [13]) of 54.1 µM and a TGI (OVCAR-5 [7]; read-out: TGI) of 13.1 µM. It also gave a GI50 (OVCAR-5 [7]; read-out: pGI50 (converted)) of 3.8 µM, a CC50 (OVCAR-5 [7]; [14]) of 83.2 µM and a TGI (OVCAR-5 [7]; read-out: pTGI (converted)) of 13.2 µM. It also gave a GI50 (SN12C; read-out: GI50) of 3.44 µM, an LC50 (SN12C; read-out: LC50) of over 100 µM and a TGI (SN12C; read-out: TGI) of 17.2 µM. The GI50 (SN12C; read-out: pGI50 (converted)) was 3.55 µM, the LC50 (SN12C; read-out: pLC50 (converted)) was over 100 µM and the TGI (SN12C; read-out: pTGI (converted)) was 17 µM. It also gave a growth at 100 µM (CAKI-1) of -38%, a growth at 0.1 µM (T47D) of 90% and a growth at 0.1 µM (MDA-MB-231 [8]) of 105%. For the same compound, the growth at 100 µM (HCT-15) was -57%, the growth at 0.1 µM (SK-MEL-2) was 94% and the growth at 1 µM (OVCAR-3) was 91%. For the same compound, the growth at 1 µM (NCI-H522) was 51%, the growth at 100 µM (SR) was -40% and the growth at 0.01 µM (UACC-257 [9]) was 90%. The GI50 (COLO 205 [10]; read-out: GI50) was 2.25 µM, the CC50 (COLO 205 [10]; [13]) was 15.9 µM and the TGI (COLO 205 [10]; read-out: TGI) was 51.7 µM. The GI50 (COLO 205 [10]; read-out: pGI50 (converted)) was 2.82 µM, the CC50 (COLO 205 [10]; [14]) was 19.1 µM and the TGI (COLO 205 [10]; read-out: pTGI (converted)) was 5.13 µM. For the same compound, the growth at 100 µM (RPMI-8226) was -30%, the growth at 1 µM (NCI-H460) was 96% and the GI50 (SF-295 [11]; read-out: GI50) was 2.06 µM. The CC50 (SF-295 [11]; [13]) was 17 µM, the TGI (SF-295 [11]; read-out: TGI) was 49.6 µM and the GI50 (SF-295 [11]; read-out: pGI50 (converted)) was 2.57 µM. It also gave a CC50 (SF-295 [11]; [14]) of 17.8 µM, a TGI (SF-295 [11]; read-out: pTGI (converted)) of 4.9 µM and a growth at 1 µM (NCI/ADR-RES) of 97%. The growth at 1 µM (ACHN) was 92%, the growth at 0.1 µM (UACC-257 [12]) was 91% and the GI50 (IGROV-1; read-out: GI50) was 3.81 µM. It also gave a CC50 (IGROV-1; [13]) of over 100 µM, a TGI (IGROV-1; read-out: TGI) of 12.6 µM and a GI50 (IGROV-1; read-out: pGI50 (converted)) of 3.8 µM. For the same compound, the CC50 (IGROV-1; [14]) was over 100 µM, the TGI (IGROV-1; read-out: pTGI (converted)) was 12.6 µM and the growth at 1 µM (NCI-H226) was 96%.
